In patent publication US20230135152A1 (ACURASTEM INCORPORATED, priority 2020, published 2023):

How the values were obtained:
PIKFYVE [1] = biological target: T1, PIKFYVE (Homo sapiens, UniProt Q9Y2I7); assay: PIKFYVE assay (luciferase ADP-Glo kinase assay, Promega); format: biochemical; conditions: Table 3
How it was run: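 ADP generated in the kinase reaction was detected by ADP-Glo luminescence (luciferase).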

PIKFYVE [2] = biological target: T1, PIKFYVE; assay: Cell-based Pikfyve inhibition activity assay (EEA1 staining, mean vesicle size in BJ fibroblast cells); conditions: Table 4, 4 hours treatment, 3 μM Apilimod = 100% inhibition
How it was run: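 BJ fibroblasts treated 4 h at 37° C with eleven 3-fold doses (0.03-3000 nM), then fixed and stained for EEA1. Confocal images (20×, 16 tiles/well) analysed for mean vesicle size. Normalised to 0.5% DMSO (0%) and 3 μM apilimod (100%); dose-response fitted with variable slope.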

T1 sequence (Q9Y2I7 whole entry): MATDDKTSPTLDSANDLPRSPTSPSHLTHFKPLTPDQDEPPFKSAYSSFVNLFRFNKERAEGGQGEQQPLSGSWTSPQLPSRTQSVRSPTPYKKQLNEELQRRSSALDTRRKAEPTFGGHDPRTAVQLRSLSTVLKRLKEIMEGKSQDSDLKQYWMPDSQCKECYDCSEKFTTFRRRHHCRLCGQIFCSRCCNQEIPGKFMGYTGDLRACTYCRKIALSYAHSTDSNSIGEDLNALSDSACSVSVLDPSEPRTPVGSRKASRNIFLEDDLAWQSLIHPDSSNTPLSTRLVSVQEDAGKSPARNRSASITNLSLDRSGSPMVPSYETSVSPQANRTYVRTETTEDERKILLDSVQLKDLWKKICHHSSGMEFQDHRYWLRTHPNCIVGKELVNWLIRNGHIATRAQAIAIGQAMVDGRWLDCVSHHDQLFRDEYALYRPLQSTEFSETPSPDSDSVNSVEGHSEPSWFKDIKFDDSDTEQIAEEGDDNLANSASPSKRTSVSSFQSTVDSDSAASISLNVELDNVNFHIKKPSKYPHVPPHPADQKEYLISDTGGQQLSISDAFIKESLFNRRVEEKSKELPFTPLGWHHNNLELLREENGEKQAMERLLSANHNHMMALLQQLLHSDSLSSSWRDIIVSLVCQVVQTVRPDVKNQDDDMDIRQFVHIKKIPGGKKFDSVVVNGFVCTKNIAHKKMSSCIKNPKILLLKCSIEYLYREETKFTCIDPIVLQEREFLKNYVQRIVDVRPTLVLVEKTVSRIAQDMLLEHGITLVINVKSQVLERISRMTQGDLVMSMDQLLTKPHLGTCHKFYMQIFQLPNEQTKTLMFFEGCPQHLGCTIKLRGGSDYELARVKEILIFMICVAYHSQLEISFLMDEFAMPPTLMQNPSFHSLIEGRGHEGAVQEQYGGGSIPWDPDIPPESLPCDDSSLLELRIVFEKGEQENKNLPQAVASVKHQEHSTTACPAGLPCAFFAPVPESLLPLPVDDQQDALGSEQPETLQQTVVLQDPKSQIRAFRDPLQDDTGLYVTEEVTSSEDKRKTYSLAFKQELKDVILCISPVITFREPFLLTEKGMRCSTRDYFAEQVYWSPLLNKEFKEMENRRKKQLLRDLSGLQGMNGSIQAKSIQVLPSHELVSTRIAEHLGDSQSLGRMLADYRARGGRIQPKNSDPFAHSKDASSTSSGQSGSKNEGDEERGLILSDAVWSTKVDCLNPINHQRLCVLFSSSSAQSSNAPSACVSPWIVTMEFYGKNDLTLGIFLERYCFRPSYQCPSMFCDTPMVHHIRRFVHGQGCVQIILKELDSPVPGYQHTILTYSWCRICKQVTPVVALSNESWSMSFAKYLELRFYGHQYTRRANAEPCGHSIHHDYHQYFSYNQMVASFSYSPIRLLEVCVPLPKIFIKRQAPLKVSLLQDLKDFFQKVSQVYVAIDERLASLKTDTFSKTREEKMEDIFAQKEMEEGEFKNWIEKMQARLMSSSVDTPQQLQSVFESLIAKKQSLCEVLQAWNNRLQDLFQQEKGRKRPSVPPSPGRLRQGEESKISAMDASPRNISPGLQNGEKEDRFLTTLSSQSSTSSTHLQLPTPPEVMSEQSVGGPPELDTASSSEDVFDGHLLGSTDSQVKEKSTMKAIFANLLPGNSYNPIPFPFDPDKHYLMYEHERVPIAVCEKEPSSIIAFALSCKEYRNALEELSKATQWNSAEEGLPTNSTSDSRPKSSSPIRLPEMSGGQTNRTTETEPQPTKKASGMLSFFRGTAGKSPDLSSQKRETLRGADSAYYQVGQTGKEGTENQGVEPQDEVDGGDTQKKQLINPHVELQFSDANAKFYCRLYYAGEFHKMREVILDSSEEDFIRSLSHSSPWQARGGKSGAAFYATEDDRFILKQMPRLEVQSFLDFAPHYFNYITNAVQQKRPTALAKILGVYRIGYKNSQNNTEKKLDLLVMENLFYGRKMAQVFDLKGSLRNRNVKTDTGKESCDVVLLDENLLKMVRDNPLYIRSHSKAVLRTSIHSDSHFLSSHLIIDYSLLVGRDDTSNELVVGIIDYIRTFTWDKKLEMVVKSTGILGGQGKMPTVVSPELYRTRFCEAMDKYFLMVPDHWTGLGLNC

`COc1cccc(-c2ccn(-c3cc(N4CCOCC4)nc([C@H](CO)OC)n3)n2)c1` [Compound 263, (R)-2-methoxy-2-(4-(3-(3-methoxyphenyl)-1H-pyrazol-1-yl)-6-morpholinopyrimidin-2-yl)ethan-1-ol] was tested, and the IC50 (PIKFYVE [1]) was 10 to 100 nM and the EC50 (PIKFYVE [2]) was 100 to 500 nM.
`CO[C@H](CO)c1nc(N2CCOCC2)cc(-n2ccc(-c3cccc4[nH]ccc34)n2)n1` [Compound 268, (S)-2-(4-(3-(1H-indol-4-yl)-1H-pyrazol-1-yl)-6-morpholinopyrimidin-2-yl)-2-methoxyethan-1-ol] was tested, and the IC50 (PIKFYVE [1]) was 10 to 100 nM and the EC50 (PIKFYVE [2]) was 500 to 5000 nM.
`CO[C@@H](CO)c1nc(N2CCOCC2)cc(-n2ccc(-c3cccc4[nH]ccc34)n2)n1` [Compound 269, (R)-2-(4-(3-(1H-indol-4-yl)-1H-pyrazol-1-yl)-6-morpholinopyrimidin-2-yl)-2-methoxyethan-1-ol] was tested, and the IC50 (PIKFYVE [1]) was 10 to 100 nM and the EC50 (PIKFYVE [2]) was 500 to 5000 nM.
Molecule `CCc1cccc(-c2ccn(-c3cc(N4CCOCC4)nc([C@@H](CO)OC)n3)n2)c1` [Compound 272, (S)-2-(4-(3-(3-ethylphenyl)-1H-pyrazol-1-yl)-6-morpholinopyrimidin-2-yl)-2-methoxyethan-1-ol] has an IC50 (PIKFYVE [1]) of 3 to 10 nM and an EC50 (PIKFYVE [2]) of 100 to 500 nM.
Molecule `CCc1cccc(-c2ccn(-c3cc(N4CCOCC4)nc([C@H](CO)OC)n3)n2)c1` [Compound 273, (R)-2-(4-(3-(3-ethylphenyl)-1H-pyrazol-1-yl)-6-morpholinopyrimidin-2-yl)-2-methoxyethan-1-ol] has an IC50 (PIKFYVE [1]) of 3 to 10 nM and an EC50 (PIKFYVE [2]) of 100 to 500 nM.
For `CO[C@H](CO)c1nc(N2CCOCC2)cc(-n2ccc(-c3cccc4ncsc34)n2)n1` [Compound 274, (S)-2-(4-(3-(benzo[d]thiazol-7-yl)-1H-pyrazol-1-yl)-6-morpholinopyrimidin-2-yl)-2-methoxyethan-1-ol], the IC50 (PIKFYVE [1]) was 100 to 5000 nM and the EC50 (PIKFYVE [2]) was > 5000 nM.
In the case of `CO[C@@H](CO)c1nc(N2CCOCC2)cc(-n2ccc(-c3cccc4ncsc34)n2)n1` [Compound 275, (R)-2-(4-(3-(benzo[d]thiazol-7-yl)-1H-pyrazol-1-yl)-6-morpholinopyrimidin-2-yl)-2-methoxyethan-1-ol], the IC50 (PIKFYVE [1]) is reported as 100 to 5000 nM and the EC50 (PIKFYVE [2]) is reported as > 5000 nM.
For `COCc1cccc(-c2ccn(-c3cc(N4CCOCC4)nc([C@@H](CO)OC)n3)n2)c1` [Compound 276, (S)-2-methoxy-2-(4-(3-(3-(methoxymethyl)phenyl)-1H-pyrazol-1-yl)-6-morpholinopyrimidin-2-yl)ethan-1-ol], the IC50 (PIKFYVE [1]) was 3 to 10 nM and the EC50 (PIKFYVE [2]) was 100 to 500 nM.
`COCc1cccc(-c2ccn(-c3cc(N4CCOCC4)nc([C@H](CO)OC)n3)n2)c1` [Compound 277, (R)-2-methoxy-2-(4-(3-(3-(methoxymethyl)phenyl)-1H-pyrazol-1-yl)-6-morpholinopyrimidin-2-yl)ethan-1-ol] showed an IC50 (PIKFYVE [1]) of 3 to 10 nM and an EC50 (PIKFYVE [2]) of 100 to 500 nM.
With `CO[C@H](CO)c1nc(N2CCOCC2)cc(-n2nc(-c3csc4ccccc34)cc2C)n1` [Compound 278, (S)-2-(4-(3-(benzo[b]thiophen-3-yl)-5-methyl-1H-pyrazol-1-yl)-6-morpholinopyrimidin-2-yl)-2-methoxyethan-1-ol] the IC50 (PIKFYVE [1]) was < 3 nM and the EC50 (PIKFYVE [2]) was 500 to 5000 nM.
Molecule `CO[C@@H](CO)c1nc(N2CCOCC2)cc(-n2nc(-c3csc4ccccc34)cc2C)n1` [Compound 279, (R)-2-(4-(3-(benzo[b]thiophen-3-yl)-5-methyl-1H-pyrazol-1-yl)-6-morpholinopyrimidin-2-yl)-2-methoxyethan-1-ol] has an IC50 (PIKFYVE [1]) of 3 to 10 nM and an EC50 (PIKFYVE [2]) of 500 to 5000 nM.
`CO[C@H](CO)c1nc(N2CCOCC2)cc(-n2ccc(-c3c[nH]c4ncccc34)n2)n1` [Compound 292, (S)-2-(4-(3-(1H-pyrrolo[2,3-b]pyridin-3-yl)-1H-pyrazol-1-yl)-6-morpholinopyrimidin-2-yl)-2-methoxyethan-1-ol] was tested, and the IC50 (PIKFYVE [1]) was 10 to 100 nM and the EC50 (PIKFYVE [2]) was 20 to 100 nM.
In the case of `CO[C@@H](CO)c1nc(N2CCOCC2)cc(-n2ccc(-c3c[nH]c4ncccc34)n2)n1` [Compound 293, (R)-2-(4-(3-(1H-pyrrolo[2,3-b]pyridin-3-yl)-1H-pyrazol-1-yl)-6-morpholinopyrimidin-2-yl)-2-methoxyethan-1-ol], the IC50 (PIKFYVE [1]) is reported as 10 to 100 nM and the EC50 (PIKFYVE [2]) is reported as 100 to 500 nM.
For `Cc1cccc(-c2ccn(-c3cc(N4CCOCC4)nc(COCc4cn(C)cn4)n3)n2)c1` [Compound 297, 4-(2-(((1-methyl-1H-imidazol-4-yl)methoxy)methyl)-6-(3-(m-tolyl)-1H-pyrazol-1-yl)pyrimidin-4-yl)morpholine], the IC50 (PIKFYVE [1]) was 3 to 10 nM and the EC50 (PIKFYVE [2]) was 100 to 500 nM.
Work on `Cn1cc(COCc2nc(N3CCOCC3)cc(-n3ccc(-c4ccccc4)n3)n2)cn1` [Compound 298, 4-(2-(((1-methyl-1H-pyrazol-4-yl)methoxy)methyl)-6-(3-phenyl-1H-pyrazol-1-yl)pyrimidin-4-yl)morpholine] yielded an IC50 (PIKFYVE [1]) of 3 to 10 nM and an EC50 (PIKFYVE [2]) of 500 to 5000 nM.
With `Cc1cccc(-c2ccn(-c3cc(N4CCOCC4)nc(COCc4cnn(C)c4)n3)n2)c1` [Compound 299, 4-(2-(((1-methyl-1H-pyrazol-4-yl)methoxy)methyl)-6-(3-(m-tolyl)-1H-pyrazol-1-yl)pyrimidin-4-yl)morpholine] the IC50 (PIKFYVE [1]) was < 3 nM and the EC50 (PIKFYVE [2]) was 20 to 100 nM.
For `Cc1cccc(-c2ccn(-c3cc(N4CCOCC4)nc(COCc4cn[nH]c4)n3)n2)c1` [Compound 300, 4-(2-(((1H-pyrazol-4-yl)methoxy)methyl)-6-(3-(m-tolyl)-1H-pyrazol-1-yl)pyrimidin-4-yl)morpholine], the IC50 (PIKFYVE [1]) was < 3 nM and the EC50 (PIKFYVE [2]) was 20 to 100 nM.
With `Cc1cc(Oc2ccn(-c3cc(N4CCOCC4)nc(OCCc4cnn(C)c4)n3)n2)ccn1` [Compound 302, 4-(2-(2-(1-methyl-1H-pyrazol-4-yl)ethoxy)-6-(3-((2-methylpyridin-4-yl)ox)-1H-pyrazol-1-yl)pyrimidin-4-yl)morpholine] the IC50 (PIKFYVE [1]) was 10 to 100 nM and the EC50 (PIKFYVE [2]) was > 5000 nM.
For `Cn1cc(CCOc2nc(N3CCOCC3)cc(-n3ccc(Oc4ccncc4)n3)n2)cn1` [Compound 303, 4-(2-(2-(1-methyl-1H-pyrazol-4-yl)ethoxy)-6-(3-(pyridin-4-yloxy)-1H-pyrazol-1-yl)pyrimidin-4-yl)morpholine], the IC50 (PIKFYVE [1]) was 100 to 5000 nM and the EC50 (PIKFYVE [2]) was > 5000 nM.
For `Cc1cccc(-c2ccn(-c3cc(N4CCOCC4)nc(/C=C/c4cnn(C)c4)n3)n2)c1` [Compound 304, (E)-4-(2-(2-(1-methyl-1H-pyrazol-4-yl)vinyl)-6-(3-(m-tolyl)-1H-pyrazol-1-yl)pyrimidin-4-yl)morpholine], the IC50 (PIKFYVE [1]) was 3 to 10 nM and the EC50 (PIKFYVE [2]) was 20 to 100 nM.
`Cc1cccc(-c2ccn(-c3cc(N4CCOCC4)nc(CCc4cccnn4)n3)n2)c1` [Compound 317, 4-(2-(2-(pyridazin-3-yl)ethyl)-6-(3-(m-tolyl)-1H-pyrazol-1-yl)pyrimidin-4-yl)morpholine] showed an IC50 (PIKFYVE [1]) of 3 to 10 nM and an EC50 (PIKFYVE [2]) of 100 to 500 nM.
Work on `Cc1cccc(-c2ccn(-c3cc(N4CCOCC4)nc(C4CCOCC4)n3)n2)c1` [Compound 326, 4-(2-(tetrahydro-2H-pyran-4-yl)-6-(3-(m-tolyl)-1H-pyrazol-1-yl)pyrimidin-4-yl)morpholine] yielded an IC50 (PIKFYVE [1]) of 10 to 100 nM and an EC50 (PIKFYVE [2]) of 500 to 5000 nM.
Work on `Cc1cccc(-c2ccn(-c3cc(N4CCOCC4)nc([C@H]4C[C@@H](O)CO4)n3)n2)c1` [Compound 331, (3R,5R)-5-(4-morpholino-6-(3-(m-tolyl)-1H-pyrazol-1-yl)pyrimidin-2-yl)tetrahydrofuran-3-ol] yielded an IC50 (PIKFYVE [1]) of 3 to 10 nM and an EC50 (PIKFYVE [2]) of 100 to 500 nM.
`Cc1cccc(-c2ccn(-c3cc(N4CCOCC4)nc([C@H]4C[C@H](O)CO4)n3)n2)c1` [Compound 332, (3S,5R)-5-(4-morpholino-6-(3-(m-tolyl)-1H-pyrazol-1-yl)pyrimidin-2-yl)tetrahydrofuran-3-ol] was tested, and the IC50 (PIKFYVE [1]) was 3 to 10 nM and the EC50 (PIKFYVE [2]) was 500 to 5000 nM.
For `Cc1cccc(-c2ccn(-c3cc(N4CCOCC4)c4[nH]c(C)cc4n3)n2)c1` [Compound 334, 4-(2-methyl-5-(3-(m-tolyl)-1H-pyrazol-1-yl)-1H-pyrrolo[3,2-b]pyridin-7-yl)morpholine], the IC50 (PIKFYVE [1]) was 10 to 100 nM and the EC50 (PIKFYVE [2]) was 500 to 5000 nM.
For `Cc1cccc(-c2ccn(-c3cc(N4CCOCC4)c4[nH]cc(C)c4n3)n2)c1` [Compound 335, 4-(3-methyl-5-(3-(m-tolyl)-1H-pyrazol-1-yl)-1H-pyrrolo[3,2-b]pyridin-7-yl)morpholine], the IC50 (PIKFYVE [1]) was 10 to 100 nM and the EC50 (PIKFYVE [2]) was 500 to 5000 nM.
`Cc1cccc(-c2ccn(-c3cc(N4CCOCC4)n4nc(C)cc4n3)n2)c1` [Compound 336, 4-(2-methyl-5-(3-(m-tolyl)-1H-pyrazol-1-yl)pyrazolo[1,5-a]pyrimidin-7-yl)morpholine] was tested, and the IC50 (PIKFYVE [1]) was 10 to 100 nM and the EC50 (PIKFYVE [2]) was 500 to 5000 nM.
Work on `Cc1cccc(-c2ccn(-c3cc(N4CCOCC4)n4ncc(C)c4n3)n2)c1` [Compound 337, 4-(3-methyl-5-(3-(m-tolyl)-1H-pyrazol-1-yl)pyrazolo[1,5-a]pyrimidin-7-yl)morpholine] yielded an IC50 (PIKFYVE [1]) of 10 to 100 nM and an EC50 (PIKFYVE [2]) of 500 to 5000 nM.
With `Cc1cccc(-c2ccn(-c3cc(N4CCOCC4)nc(CCc4ccnn4C)n3)n2)c1` [Compound 338, 4-(2-(2-(1-methyl-1H-pyrazol-5-yl)ethyl)-6-(3-(m-tolyl)-1H-pyrazol-1-yl)pyrimidin-4-yl)morpholine] the IC50 (PIKFYVE [1]) was 3 to 10 nM and the EC50 (PIKFYVE [2]) was > 5000 nM.
With `Cc1cccc(-c2ccn(-c3cc(N4CCOCC4)nc(-n4cnc(CCO)c4)n3)n2)c1` [Compound 339, 2-(1-(4-morpholino-6-(3-(m-tolyl)-1H-pyrazol-1-yl)pyrimidin-2-yl)-1H-imidazol-4-yl)ethan-1-ol] the IC50 (PIKFYVE [1]) was 3 to 10 nM and the EC50 (PIKFYVE [2]) was 100 to 500 nM.
In the case of `Cc1cccc(Oc2ccn(-c3cc(N4CCOCC4)nc(OCCc4cnn(C)c4)n3)n2)c1` [Compound 346], the IC50 (PIKFYVE [1]) is reported as < 3 nM and the EC50 (PIKFYVE [2]) is reported as 20 to 100 nM.
In the case of `COC(C)(C)c1nc(N2CCOCC2)cc(-n2ccc(-c3cccc(C)c3)n2)n1` [Compound 347, 4-(2-(2-methoxypropan-2-yl)-6-(3-(m-tolyl)-1H-pyrazol-1-yl)pyrimidin-4-yl)morpholine], the IC50 (PIKFYVE [1]) is reported as 3 to 10 nM and the EC50 (PIKFYVE [2]) is reported as 100 to 500 nM.
